What was measured:
DOPAC = assay: Neurochemistry: tissue levels of DOPAC in brain regions; format: in vivo, rat; details: 33 μmol/kg s.c., rats, 65 min before sacrifice, n = 5; for DOPAC frontal cortex ± SEM: frontal cortex tissue; for DOPAC striatum ± SEM: striatum tissue
Description: The change in turnover of dopamine in the terminal areas of the ascending dopaminergic projections of the mammalian brain can be illustrated by measuring of changes in biochemical indices in the brain e.g. changes in concentrations of dopamine metabolites such as 3,4-dihydroxyphenyl-acetic acid (DOPAC) in the striatum and frontal cortex.
The measurement of the tissue content of DOPAC is well established in the field of research since the 1960's. In short, male Sprague-Dawley rats are administered the test compound 60 minutes prior to decapitation. The brain is rapidly taken out and dissected. The striatum is rapidly frozen and subsequently quantitatively analyzed with respect to its content of DOPAC by means of HPLC and electrochemical detection. The number of animals used for each test compound/vehicle is 5/group.
After the behavioural activity sessions, the rats were decapitated and their brains rapidly taken out and put on an ice-cold petri-dish. The brains were dissected into a right and a left part of which the right part was analyzed for neurochemicals with HPLC and the left part was analyzed for gene expression. The limbic forebrain, the striatum, the frontal cortex, the hippocampus and the remaining hemispheral parts of each rat were dissected and frozen. Each brain part was subsequently analyzed with respect to its content of monoamines and their metabolites.
The monoamine transmitter substances (NA (noradrenaline), DA (dopamine), 5-HT (serotonin)) as well as one corresponding acid, (DOPAC (3,4-dihydroxyphenylacetic acid), were quantified in brain tissue homogenates by HPLC separations and electrochemical detection.
The analytical method is based on two chromatographic separations dedicated for amines or acids. Two chromatographic systems share a common auto injector with a 10-port valve and two sample loops for simultaneous injection on the two systems. Both systems are equipped with a reverse phase column (Luna C18 (2), dp 3 μm, 50*2 mm i.d., Phenomenex) and electrochemical detection is accomplished at two potentials on glassy carbon electrodes (MF-1000, Bioanalytical Systems, Inc.). The column effluent is passed via a T-connection to the detection cell or to a waste outlet. This is accomplished by two solenoid valves, which block either the waste or detector outlet. By preventing the chromatographic front from reaching the detector, better detection conditions are achieved. The aqueous mobile phase (0.4 ml/min) for the acid system contains citric acid 14 mM, sodium citrate 10 mM, Methanol 15% (v/v) and EDTA 0.1 mM. Detection potentials relative to Ag/AgCl reference are 0.45 and 0.60V. […] Detection potentials relative to Ag/AgCl reference are 0.45 and 0.65V.

Arc mRNA = assay: m-RNA analysis: Arc mRNA tissue levels in brain regions; format: in vivo, rat; details: 33 μmol/kg s.c., rats, 65 min before sacrifice, n = 5; for Arc frontal cortex ± SEM: frontal cortex tissue; for Arc striatum ± SEM: striatum tissue
Protocol: Sesack et al. (Anatom Substr Glut-Dopamine Inter. Annals of NY AcadSci, 2003, 1003; 36-52) discloses that the dopaminergic systems of the brain interact strongly with central glutamate neurotransmission. To investigate potential effects of compounds as disclosed herein on cortical and striatal NMDA type glutamate receptor related synaptic signaling, Arc mRNA induction was assessed upon acute administration. Arc (Arc/Arg3.1-activity regulated cytoskeleton-associated protein/activity-regulated gene 3.1; (Link W et al., Proc Natl Acad Sci, USA, 1995, 92; 5734-8 and Lyford G L et al., Neuron, 1995, 14; 433-45), is an immediate early gene (IEG), induced by synaptic activity, whose expression and localization at synaptic sites is triggered specifically by NMDA receptor activation and strongly related to neural plasticity (Steward and Worley, Neuron, 2001, 30; 227-40, Kawashima et al., PNAS, 2009, 106(1); 316-21 and Bramham et al., Exp Brain Res, 2010, 200; 125-40).
[…] were dissected into […] different areas: Limbic system (containing nucleus accumbens, most parts of the olfactory tubercle, ventral pallidum), striatum, frontal cortex, hippocampus and the remaining cortex.
Total RNA was prepared by the guanidin isothiocyanate method (Chomczynski P and Sacchi N, Anal Biochem, 1987, 162(1); 156-9). RNA pellets were solved in RNAse-free water and stored at −80° C. The sample concentration was determined spectrophotometrically by a NanoDrop ND1000 (Saveen Werner). A quality indicator number and an integrity number of r-RNA were measured with an Experion (Bio-rad).
A two-step reversed transcription was performed by using a SuperScript III kit (Invitrogen). 1 μg of total RNA was reverse transcribed with 5 μl 2×RT Reaction Mix, 1 μl RT Enzyme Mix, in a total volume adjusted to 10 μl with DEPC-treated water. 1 U of E. coli RNase H was added. c-DNA was diluted 40 times and stored at −20° C.
Three sequences (one gene of interest and two reference genes) were amplified together in a triplex PCR-reaction. For real-time PCR measurements: 5 μl of c-DNA reaction was amplified in a 20 μl reaction mixture containing 10 μl PerfeCta Multiplex qPCR Supermix (Quanta, VWR), 3.5 μl RNAse-free water, 0.15 μM of each primer and 0.1 μM of each probe. Real-time PCR was measured on CFX96 (Bio-rad) using the following settings for all genes: 3 min pre-incubation at 95° C. followed by 40 cycles of denaturation at 95° C. for 15 s, annealing and elongation at 60° C. for 1 minute.
Reference genes are HPRT and cyclophilin.
The primer and probe sequences are as follows for measuring of arc:
Correct PCR products are confirmed by agarose gel electrophoresis (2%) PCR products are purified with PCR purification kit from Qiagen (Valencia, Calif., USA). All genes are sequenced at MWG, Germany. […]

## Cl.Fc1cccc(C(F)C2CNC2)c1F (single isomer, unassigned; (-)) [Example 1, (−)-3-[(2,3-Difluorophenyl)(Fluoro)Methyl]Azetidine Hydrochloric Acid Salt]
DOPAC
  DOPAC frontal cortex ± SEM: 188 ± 20% of control means
  DOPAC striatum ± SEM: 100 ± 8% of control means
Arc mRNA
  Arc frontal cortex ± SEM: 169 ± 8% of control means
  Arc striatum ± SEM: 133 ± 9% of control means

## Fc1cc(F)cc(C(F)C2CNC2)c1.O=C(O)/C=C/C(=O)O (single isomer, unassigned; (-)) [Example 3, (−)-3-[(3,5-Difluorophenyl)(Fluoro)Methyl]Azetidine Fumarate Salt]
DOPAC
  DOPAC frontal cortex ± SEM: 161 ± 6% of control means
  DOPAC striatum ± SEM: 83 ± 2% of control means
Arc mRNA
  Arc frontal cortex ± SEM: 137 ± 6% of control means
  Arc striatum ± SEM: 90 ± 7% of control means
